Measurements: paper PMC4445002, “Efficient inhibition of tumor angiogenesis and growth by a synthetic peptide blocking S100A4-methionine aminopeptidase 2 interaction” (Molecular Therapy. Methods & Clinical Development, 2015)

Key:
PC-3M-Luc tumors = test: Tumor angiogenesis (microvessel density, CD31 staining) in PC-3M-Luc xenografts; type: in vivo, human tumor in athymic nude mice; settings: single intratumoral injection of 100 μg peptide in atelocollagen, tumors dissected three days after
Experimental: Figure 5 Inhibition of tumor angiogenesis and tumor growth of human prostate cancer cells by the NBD peptide. The peptide/atelocollagen was injected into the subcutaneous tumors on day 3 after inoculation of PC-3M-Luc cells. Atelocollagen alone was injected as controls. (a) Microvessel density. Anti-CD31-antibody staining was used to detect angiogenesis. Arrows show microvessels. The images were digitally processed for assessment of angiogenesis. (b) Inhibition of tumor growth by peptide delivery in vivo. Representative bioluminescent images of nude are shown. L, tumors treated with the CBD peptide; R, tumors treated with the NBD peptide. (c) The photon count of the bioluminescence is shown. Data represent the mean ± SD. The total number of animals is 7 in two independent experiments.
The peptide/atelocollagen complex was prepared by mixing equal volumes of atelocollagen (0.1% in PBS at pH 7.4) and peptide solution (1 mg/ml) with rotation for 30 minutes at 4 °C. The final concentration of atelocollagen was 0.5%. […] Tumor growth was assessed through peptide/atelocollagen complex administration to mice 3 days after the subcutaneous inoculation of PC-3M-Luc cells. Mice were monitored by bioluminescent imaging 14 days after the injection of the peptide/atelocollagen complex. […]

[1] = system: FAK (Tyr397) in MSS31 cells; test: FAK Tyr397 phosphorylation by western blot; type: cell-based, mouse; settings: vs control and CBD peptide-treated cells; 5 μg/well, 18 hours
Experimental: Figure 7 Stimulation of the formation of focal contacts by the NBD peptide. MSS31 cells incubated with atelocollagen alone or the peptide/atelocollagen complexes were subjected to immunofluorescent staining and western blot analysis. (a) Formation of focal adhesions. The cells were immunostained with antivinculin or anti-integrin β1 antibody followed by Alexa Fluor 488-conjugated secondary antibody. F-actin was visualized with Atto 647N-Phalloidin. Nuclei were stained with DAPI. Scale bars: 50 μm. (b) Western blot analysis of focal adhesion proteins. Total cellular proteins were subjected to immunoblot analysis. (c) Relative expression level of vinculin (VCN), integrin β1 (ITGβ1) and p-FAK. The band intensity of VCN and ITGβ1 and p-FAK relative to that of β-actin and total FAK, respectively, was measured using ImageJ software and normalized to control cells.
MSS31 cells cultured in six-well plates were incubated with 5 μg/well of the NBD or the CBD peptide/atelocollagen complex or atelocollagen alone for 18 hours and were lysed in M-PER Mammarian Protein Extraction Reagent (Thermo Fisher Scientific, Waltham, MA) containing complete, EDTA-free, EASYpack (Roche Applied Science, Penzberg, Upper Bavaria, Germany) and Halt Phosphatase Inhibitor Cocktail (Thermo Fisher Scientific). The lysates was used for immunoblot analysis. […]

[2] = system: angiogenesis-related genes in MSS31 cells; test: Expression of angiogenesis-related genes by qRT-PCR; type: cell-based, mouse; settings: atelocollagen complex, retn, fgf18, aqp1, map3k5, thy1, foxo6, hs6st1, cdkn1a, thbs1, spry4
Experimental: Therefore, an alternative action mechanism of the NBD peptide would be the modulation of the expression of these angiogenesis-related genes.
Caspase3/7 assays was performed with Apo-ONE Caspase-3/7 Assay
Reagent (Promega). No significant changes are observed.
F i g . […]
PC-3M-Luc cells were treated with atelocollagen alone or the NBD peptide/atelocollagen complex in vitro, and their growth rate was monitored.
The values represent cell growth rate relative to that of control cells that is […]
MSS31 cells were incubated with the peptide/atelocollagen complexes.
Isolation of total RNA and subsequent qRT-PCR analysis were carried out as described previously (30). The GAPDH gene was used as an internal control.
(a) Proangiogenic genes in NBD and CBD peptides-treated cells. (b)
Antiangiogenic genes in NBD and CBD peptides-treated cells.

S100A4 in MSS31 cells = test: S100A4 expression in peptide-loaded cells by western blot; type: cell-based, mouse; settings: atelocollagen complex; Supplementary Figure S3

NBD: N-terminal 39 amino acid sequence of SBD, from Arg170 to Ileu208; corresponding to MetAP2 (170–208) (REAAEAHRQVRKYVMSWIKPGMTMIEICEKLEDCSRKLI)
tumor angiogenesis (PC-3M-Luc tumors): severely impaired | phosphorylation of Tyr397 of FAK [1]: no significant increase in the phosphorylation of Tyr397 of FAK | expression of angiogenesis-related genes [2]: could not detect any alteration of the expression of these genes | expression level of S100A4 (S100A4 in MSS31 cells): no apparent change in the expression level of S100A4
